{"source": "paper PMC8997995", "about": "“Amphiphilic Cell-Penetrating Peptides Containing Natural and Unnatural Amino Acids as Drug Delivery Agents” (Cells, 2022)", "key": {"CCRF-CEM cells": {"test_system": "CCRF-CEM cells", "assay": "Cellular uptake by flow cytometry in CCRF-CEM cells", "format": "cell-based, human", "settings": "3 h", "description": "CCRF-CEM and SK-OV-3 cells were used to measure the cellular uptake of a fluorescent-labeled phosphopeptide (F’-GpYEEI) (2 µM), stavudine (F’-d4T) (2 µM) lamivudine (F’-3TC) (1–2 µM), emtricitabine (F’-FTC) (2 µM), and siRNA (F’-siRNA) (36 nM) with the least toxic concentration for each linear and the cyclic peptide (10 µM). The uptake was measured in the presence and absence of the peptides. The SK-OV-3 (0.5 million) and CCRF-CEM (a million) cells were incubated in each well of 6-well plates with the synthesized peptide and the fluorescent-labeled compound in one well. Another well contained the fluorescent-labeled compound alone for 3 h in an incubator (37 °C in a humidified atmosphere of 5% CO2). […] For more details, please refer back to the cytotoxicity method described above.\nThe cells were transferred to FACS analysis tubes after being washed with phosphate-buffered saline (PBS). The cells were centrifuged 2500 RPM for 5 min with Fisher Scientific accuSpin Micro 17 to precipitate the cells and to allow replacing the supernatant. The cells were then vortexed with Nerl Blood Bank Saline pH 7–7.2 (flow cytometry buffer) and transferred to the tube through a sterile cell strainer 40 µm Nylon Mesh. Finally, the cells were resuspended in flow cytometry buffer and analyzed by flow cytometry (FACSVerse model, Becton Dickinson, San Jose, CA, USA) using the FITC channel and the BD FACSuite software. The device was washed before each experiment, and the flow rate was set at medium. Finally, the cells were analyzed by using FITC channel […] argon laser for the excitation and the emitted 519 nm fluorescence for detection. The data presented was based on the FITC-A mean intensity signal for 10,000 cells collected. All assays were performed in triplicates. Results were evaluated to determine whether the peptides are facilitating the fluorescence compound to cross the membrane.\nTo determine the mechanism of the cellular uptake, F’-[K(DipR)5] or the physical mixture of the F’-GpYEEI and [DipR]5 were used to measure the fluorescence in the treated CCRF-CEM cells. F’-[K(DipR)5] (5 or 10 µM) or the physical mixture of the F’-GpYEEI (2 µM) and [DipR]5 (5 or 10 µM) were incubated with CCRF-CEM cells over 3 h. After each incubation, the medium containing the peptide and cells was removed. The same protocol as the cellular uptake study was used to prepare the cells as described above. Finally, the cells were resuspended in the buffer and analyzed by flow cytometry using the FITC channel and the BD FACSuite software. The data presented was based on the percentage of FITC-A mean intensity signal for 10,000 cells collected. All assays were performed in triplicates."}, "MDA-MB-231 cells": {"test_system": "MDA-MB-231 cells", "assay": "Confocal microscopy of cellular uptake", "format": "cell-based, human", "settings": "MDA-MB-231, F’-GpYEEI 2 µM + peptide 10 μM, 3 h, 37 °C", "description": "Coverslips were placed in a 6-well plate wells and covered with 2 mL of media. Human epithelial mammary gland/breast adenocarcinoma cells (MDA-MB-231, ATCC No. HTB-26) were used. 200,000 cells per well were seeded with DMEM media low glucose (4 mM L-glutamine, 1000 mg/L glucose, and 110 mg/L sodium pyruvate) overnight on a cover glass in 6-well plates. The cells were treated with the physical mixture of F’-GpYEEI and [DipR]5 (10 μM) or F’-[K(DipR)5] in DMEM media low glucose without FBS and incubated for 3 h at 37 °C in a humidified atmosphere of 5% CO2. Next, the media was removed, and cells were washed three times with 2 mL PBS in each well. Cells were fixed in 2 mL of 3.7% formaldehyde for 10 min and were washed 3 times in PBS (pH 7.6). 1 mL of the Texas red solution was pipetted (40 µL of Texas Red and 100 mg BSA in 10 mL of PBS) in each well to stay for 1 h at room temperature. The cells were washed at least 3 times with 2 mL of PBS for 5 min. The nucleic staining with 13 µL of DAPI on each slide was completed. Cells were covered with a coverslip carefully without air bubbles. The slide dried horizontally overnight in a dark place that had airflow. The cells were photographed and video recorded by using Nikon Instruments A1 Confocal Laser Microscope Series. […]"}}, "note": "Non-standard residues stand in square brackets, D forms with d. Residues, ends and D or L forms follow the SMILES beside them. Dip = N[C@H](C(=O)O)C(c1ccccc1)c1ccccc1"}
{"smiles": "N=C(N)NCCC[C@@H]1NC(=O)[C@H](C(c2ccccc2)c2ccccc2)NC(=O)[C@H](CCCNC(=N)N)NC(=O)[C@H](C(c2ccccc2)c2ccccc2)NC(=O)[C@H](CCCNC(=N)N)NC(=O)[C@H](C(c2ccccc2)c2ccccc2)NC(=O)[C@H](CCCNC(=N)N)NC(=O)[C@H](C(c2ccccc2)c2ccccc2)NC(=O)[C@H](CCCNC(=N)N)NC(=O)[C@H](C(c2ccccc2)c2ccccc2)NC1=O", "note": "[[DipR]5] (cyclo([Dip]R[Dip]R[Dip]R[Dip]R[Dip]R))", "values": [{"measurement": "increase of cellular uptake of F′-3TC vs cargo alone", "setting": "CCRF-CEM cells; F’-3TC 2 µM, peptide 10 µM, flow cytometry, n = 3", "value": 14, "unit": "fold"}, {"measurement": "increase of cellular uptake of F’-FTC vs cargo alone", "setting": "CCRF-CEM cells; F’-FTC 2 µM, peptide 10 µM, flow cytometry, n = 3", "value": 13, "unit": "fold"}, {"measurement": "increase of cellular uptake of F’-GpYEEI", "setting": "CCRF-CEM cells; F’-GpYEEI 2 µM, peptide 5 µM, n = 3", "value": 43, "unit": "fold"}, {"measurement": "cellular uptake of F’-GpYEEI relative to [R5K]W7A", "setting": "CCRF-CEM cells; side-by-side comparison, F’-GpYEEI 2 µM, peptides 10 µM", "value": 5, "unit": "fold"}, {"measurement": "localization of F’-GpYEEI delivered by the peptide", "setting": "MDA-MB-231 cells", "value": "mostly localized in the cytosol"}]}
